Consider 5 molecules from paper PMC8524854, “A novel dual-prodrug carried by cyclodextrin inclusion complex for the targeting treatment of colon cancer” (Journal of Nanobiotechnology, 2021).

The subject of data set [1] is Kunming mice. It is filed as in vivo. The following applies: for Amount (start/end), survival: observed 14 d; for Bodyweight End: end of 14 d observation. Here is the method: All animals were given a single oral gavage of 0.2 mL of different dosage forms, and their body weight was monitored every day. Meanwhile, the toxicity and mortality of all animals were observed every day. The conventional changes such as the cases of the diet, urine, and feces were recorded. On the 15th day after treatment, the blood of each group was collected from the heart and centrifuged at 1,000 × g for 10 min to collect serum. An automated biochemical analyzer was used to detect serum alanine aminotransferase (ALT), aspartate aminotransferase (AST), blood urea nitrogen (BUN), and creatinine (Cr). Meanwhile, the heart, liver, lung, and kidney were quickly excised, washed with normal saline, and weighed. The visceral index is estimated according to the following formula as Viscera Index (%) = Viscera Weight / Body Weight × 100. And then, all the tissues were fixed with 10% formalin and stained with hematoxylin & eosin (H&E) for pathological analysis.

Data set [2] concerns SW620 xenografts. Description: Pharmacodynamic evaluation, tumor growth inhibition. It counts as in vivo, BALB/C nude mice. The following applies: every two days for 7 times, tumor weight on day 25 post-implantation. Here is the method: Ten days after tumor transplantation, the SW620 tumor-bearing mice were randomly divided into 8 groups with 5 mice in each group when the tumors reached about 100 mm^3. The animals were weighed before treatment, and the measurement was continued every 2 days. The two axes of the tumor were measured with a vernier micrometer (L, longest axis; W, shortest axis). Tumor volume (mm^3) was calculated as ½ (L × W^2). Anti-tumor activity was evaluated by tumor growth inhibition (TGI), which was the mean tumor weight (MTW) of the treated group (TG) relative to the saline-treated control group (CG) on day 15, as calculated according to the formula [47]. […].

Data set [3] relates to SW620 xenografts. Description: H&E pathological analysis of tumor tissue (necrosis rate). It counts as in vivo, nude mice. The following applies: 15 days post-administration. As to the method:
(§1) 15 days post-administration, all nude mice were sacrificed. The tumor tissues were collected, stained with H&E, and observed under an inverted microscope (400 ×). In addition, the TUNEL test was performed to detect cell apoptosis. Meanwhile, the expressions of both VEGFR-3 and Ki-67 were detected by ELISA.

The subject of data set [4] is SW620 xenografts. As to the kind of experiment: TUNEL test of tumor tissue (apoptosis rate). It counts as in vivo, nude mice. The note with it: 15 days post-administration. Here is the method: as §1
Data set [5] concerns VEGFR-3. Description: VEGFR-3 expression in tumor tissue. It is filed as in vivo, nude mice. The following applies: tumor tissue of SW620 xenografts. Here is the method: as §1
The nature of data set [6]: Solubility observed during carrier synthesis. It is filed as physicochemical. The following applies: water.
Data set [7] in a line: In vitro release of BBA by dialysis method. It counts as physicochemical. The following applies: during the first 24 h, PBS with 0.5% Tween 80, pH 7.4, 37 °C. Here is the method: Release of BBA from BBA/CM-β-CD and BBA/FA-PEG-CM-β-CD was investigated in vitro using the dialysis method. […] At different time points (0.25, 0.5, 1, 2, 3, 4, 6, 8, 12, 48, 72 and 96 h), 1.0 mL of release medium was removed and replaced with fresh medium.

Data set [8] relates to CaCo-2 cells. Description: MTT cell-growth inhibition. It is filed as cell-based, human. The following applies: 24 h, 48 h, 72 h, 5-FU at 20 μg/mL. As to the method: (§2) CaCo-2 and SW620 cells were used as model cells to evaluate the anticancer effects in vitro. Single-cell suspension was prepared with DMEM containing 10% Gibco FBS and 1% penicillin–streptomycin. The cells were seeded in a 96-well plate (3500 cells/well) and incubated respectively for 24 h, 48 h, and 72 h at 37 °C with 5% CO2. […] The medium was removed, and cells were washed three times with PBS before incubation with MTT for 4 h at 37 °C. After the medium was removed, 100 μL of DMSO was added to the well for 10 min. The absorbance of the solution was measured at 570 nm by Multimode Reader (Bio Tek Synergy H1).

In data set [9] the test system is SW620 cells. Description: MTT cell-growth inhibition. It is filed as cell-based, human. The note with it: 24 h, 48 h, 72 h, 5-FU at 20 μg/mL. As to the method: as §2
The test system of data set [10] is SW620 cells. As to the kind of experiment: Cell apoptosis, Annexin V/PI flow cytometry. It is filed as cell-based, human. The following applies: 30 μM, 48 h. As to the method: For the cell apoptosis detection, the cells in the different groups were washed three times with PBS and incubated with Annexin V-FITC solution for 10 min. Then, flow cytometry analysis was performed to detect the FITC and PI fluorescent intensity and report the percentage of the cell population within each plot quadrant.

The test system of data set [11] is SW620 cells. Description: Cell cycle analysis, propidium iodide flow cytometry. The note with it: 48 h. It is filed as cell-based, human. Here is the method: For the cell cycle analysis, the cells in the different groups were washed three times with PBS and incubated with 1 mL of pre-cooled 70% alcohol at 4 °C for 24 h. After the cells were fixed, centrifuged at 300 × g for 5 min to collect the cells. 1 mL of cold PBS was added to re-suspend the cells and centrifuged at 300 × g for 5 min to remove the supernatant. 10 μL of RNaseA (50 ×) and 25 μL of propidium iodide (20 ×) in 0.5 mL of buffer were added. Finally, flow cytometry was used for cell cycle detection.

A short description of data set [12]: Pharmacokinetics: butyric acid in plasma after gavage. The following applies: gavage 0.366 g/kg. It counts as in vivo, SW620 tumor-bearing BALB/C nude mice. As to the method: SW620 tumor-bearing mice were randomly divided into 3 groups (n = 5). […] The blood was collected respectively from the heart at 0.25, 0.5, 1, 2, 3, 4, 6, 8, 12, 24, 36, 48, and 72 h after administration. The whole blood was quickly centrifuged at 2000 × g for 5 min, and the upper plasma was precisely aspirated. Then 0.35 mL of methanol was added, vortexed for 2 min, and centrifuged at 3350 × g for 15 min. The supernatant was used to detect butyric acid by HPLC [45]. The pharmacokinetic parameters were calculated by non-compartmental analysis using Drug Analysis System (DAS 2.1.1, Shanghai, China).

Data set [13] deals with Ki-67. As to the kind of experiment: Ki-67 expression in tumor tissue. It is filed as in vivo, nude mice. The note with it: tumor tissue of SW620 xenografts. As to the method: as §1
Setting [14] is: Kunming mice, single oral gavage.
Where [15] appears, read: Kunming mice, before single oral gavage.
[16] abbreviates: serum, Kunming mice, 15th day after single oral gavage.

Read-outs that look alike come from different tables or passages of the source. Marks after values point to notes of the source that are not given here.

`Nc1ccc(O)c(C(=O)O)c1` [5-ASA, 5-aminosalicylic acid]: in [1] (setting [14]), the “Amount (start/end), survival” value is 5/5. Further, in data set [1] (mouse, in vivo, po), the ALT came out at 23.20 ± 2.87 U/L, the “Average weight change rate” value is reported as 4.63%, the “Bodyweight Start” value came out at 18.58 ± 0.41 g and the Cr was 9.55 ± 0.36 µmol/L. Moreover, the “mean tumor inhibitory rate” value in data set [2] is on record as 31.33% ± 7.17%. This molecule returned an average necrosis rate in data set [3] of 15%. Moreover, the “apoptosis rate (TUNEL)” value in [4] amounted to 2.44%. Also, the VEGFR-3 positive area result in data set [5] was “significantly reduced”.

For the molecule `Nc1nc2ncc(CNc3ccc(C(=O)N[C@@H](CCC(=O)O)C(=O)O)cc3)nc2c(=O)[nH]1` [FA, Folic acid], the solubility result in [6] is listed as “too poor”.

On to “2-butyryl oxy-5-butylaminyl benzoic acid [BBA]”, for which the “in vitro accumulative release of BBA” value in data set [7] is given as 90%. Besides, the cell-proliferation inhibition effect result in [8] is on record as “some cell-proliferation inhibition effect”. Besides, the cell-proliferation inhibition effect result in data set [9] is “some cell-proliferation inhibition effect”. In addition, the “apoptotic rate including early apoptosis and late apoptosis” value in data set [10] is on record as 32.21% ± 8.26%. In data set [11], the cell cycle arrest entry is on record as “mainly arrested at the G0/G1 phase”. In addition, the “Bodyweight Start” value in data set [1] (setting [15]) is reported as 18.48 ± 0.63 g. Besides, in data set [1] (setting [14]), the “Bodyweight End” value was determined as 18.16 ± 0.63 g and the “Amount (start/end), survival” value is 5/5. Moreover, in [1] (setting [16]), the ALT was 18.53 ± 0.65 U/L, the AST turned out to be 57.27 ± 10.20 U/L, the BUN was 6.32 ± 0.97 mmol/L and the Cr was 8.63 ± 1.96 µmol/L. In data set [12], the AUC0-t came to 219.263 ± 5.360 µg·h/mL, the CL was determined as 0.21267 ± 0.00447 mL/min/kg, the Cmax is 35923 ± 826 ng/mL and the MRT0-t came to 4.769 ± 0.115 h. For the same molecule, the “mean tumor inhibitory rate” value in [2] is given as 41.76% ± 7.56%. In data set [3], this molecule yielded an average necrosis rate of 20%. Besides, the “apoptosis rate (TUNEL)” value in data set [4] is given as 3.27%. Also, the VEGFR-3 positive area entry in [5] is reported as “significantly reduced”.

Turning to `O=c1[nH]cc(F)c(=O)[nH]1` [5-FU, 5-fluorouracil], in [8], the cell-proliferation inhibition effect result was “drastically enhanced the cell proliferation inhibition rate compared with the BBA group”. The cell-proliferation inhibition effect entry in [9] is on record as “drastically enhanced the cell proliferation inhibition rate compared with the BBA group”. Besides, in data set [1] (setting [14]), the “Amount (start/end), survival” value is given as 5/5. Further, the “serum biochemical analysis indexes” value in data set [1] (mouse, in vivo) is “AST and ALT increased significantly”. Besides, in data set [1] (mouse, in vivo, po), the ALT came out at 292.50 ± 6.60 U/L, the AST is 254.00 ± 53.4 U/L, the “Average weight change rate” value is on record as “− 4.46* %” and the BUN was found to be 6.92 ± 1.20 mmol/L. Moreover, in data set [1] (mouse, in vivo, po), the “Bodyweight Start” value is 18.82 ± 0.61 g, the Cr worked out at 7.45 ± 2.91 µmol/L, the Heart index was 0.81 ± 0.28% and the Lung index stood at 0.85 ± 0.11%. Besides, the “decrease of average body weight” value in data set [1] (mouse, in vivo, po) is listed as 4.46%. In addition, the “mean tumor inhibitory rate” value in data set [2] is 85.85% ± 2.89%. The molecule also gave an average necrosis rate in data set [3] of 50%. Also, the “apoptosis rate (TUNEL)” value in data set [4] was 8.87%. Further, the VEGFR-3 positive area result in data set [5] is given as “significantly reduced”. Besides, in [13], the Ki-67 positive expression result is on record as “significant decrease of the positive expression”.

Consider `CCCC(=O)[O-].[Na+]` [NaB, sodium butyrate], for which the “Bodyweight Start” value in data set [1] (setting [15]) is on record as 18.24 ± 0.53 g. Moreover, in data set [1] (setting [14]), the “Bodyweight End” value is on record as 19.14 ± 0.52 g and the “Amount (start/end), survival” value is on record as 5/5. Also, the “Average weight change rate” value in [1] (Kunming mice, single oral gavage, start to end) stood at 4.93%. In data set [1] (setting [16]), this molecule gave an ALT of 17.37 ± 1.77 U/L, an AST of 58.17 ± 4.75 U/L and a BUN of 8.60 ± 0.98 mmol/L. Further, the “mean tumor inhibitory rate” value in data set [2] is 15.30% ± 5.61%. For the same molecule, the average necrosis rate in [3] was determined as 10%. Further, in data set [4], the “apoptosis rate (TUNEL)” value was 1.45%. Moreover, the VEGFR-3 positive area result in data set [5] is listed as “significantly reduced”.
